# Measured values published in patent US20070004660A1, “Synergistic Modulation of Flt3 Kinase Using Alkylquinolines and Alkylquinazolines” (priority 2005, published 2007).
# System: MV4-11 cells
# Experiment: Inhibition of MV4-11 cell proliferation (CellTiterGlo, 72 h)
# Type: cell-based
# Conditions: Homo sapiens; 72 h growth inhibition; uncertainty ±20%
row,Structure (SMILES),IC50
1,"O=C(NCCCOc1ccc2c(C3CCN(C(=O)Nc4ccc(N5CCCC5)nc4)CC3)ncnc2c1)N1CCOCC1 [Example 112, Morpholine-4-carboxylic acid (3-{4-[1-(6-pyrrolidin-1-yl-pyridin-3-ylcarbamoyl)-piperidin-4-yl]-quinazolin-7-yloxy}-propyl)-amide]",98 nM
2,"CN1CCN(CCCOc2ccc3c(C4CCN(C(=O)Nc5ccc(N6CCOCC6)cc5)CC4)ncnc3c2)CC1 [Example 73, 4-{7-[3-(4-Methyl-piperazin-1-yl)-propoxy]-quinazolin-4-yl}-piperidine-1-carboxylic acid (4-morpholin-4-yl-phenyl)-amide]",40 nM
3,"CS(=O)(=O)NCCCOc1ccc2c(C3CCN(C(=O)Nc4ccc(N5CCOCC5)nc4)CC3)ncnc2c1 [Example 87, 4-[7-(3-Methanesulfonylamino-propoxy)-quinazolin-4-yl]-piperidine-1-carboxylic acid (6-morpholin-4-yl-pyridin-3-yl)-amide]",69 nM
4,"O=C1CCCN1CCOc1ccc2c(C3CCN(C(=O)Nc4cnc(N5CCCC5)nc4)CC3)ncnc2c1 [Example 84, 4-{7-[2-(2-Oxo-pyrrolidin-1-yl)-ethoxy]-quinazolin-4-yl}-piperidine-1-carboxylic acid (2-pyrrolidin-1-yl-pyrimidin-5-yl)-amide]",74 nM
5,"O=C1CCCN1CCCOc1ccc2c(C3CCN(C(=O)Nc4cnc(N5CCCC5)nc4)CC3)ncnc2c1 [Example 90, 4-{7-[3-(2-Oxo-pyrrolidin-1-yl)-propoxy]-quinazolin-4-yl}-piperidine-1-carboxylic acid (2-pyrrolidin-1-yl-pyrimidin-5-yl)-amide]",187 nM
6,"O=C(Nc1ccc(N2CCCC2)nc1)N1CCC(c2ncnc3cc(OCCN4CCOC4=O)ccc23)CC1 [Example 92, 4-{7-[2-(2-Oxo-oxazolidin-3-yl)-ethoxy]-quinazolin-4-yl}-piperidine-1-carboxylic acid (6-pyrrolidin-1-yl-pyridin-3-yl)-amide]",21 nM
7,"CS(=O)(=O)OCCCOc1ccc2c(C3CCN(C(=O)Nc4ccc(N5CCOCC5)cc4)CC3)ncnc2c1 [Example 122, Methanesulfonic acid 3-{4-[1-(4-morpholin-4-yl-phenylcarbamoyl)-piperidin-4-yl]-quinazolin-7-yloxy}-propyl ester]",136 nM
8,"COc1cc2ncnc(C3CCN(C(=O)Nc4ccc(C5=CCN(C(=O)OC(C)(C)C)CC5)cc4)CC3)c2cc1OC [Example 61, 4-(4-{[4-(6,7-Dimethoxy-quinazolin-4-yl)-piperidine-1-carbonyl]-amino}-phenyl)-3,6-dihydro-2H-pyridine-1-carboxylic acid tert-butyl ester]",6000 nM
9,O=C(Nc1ccc(N2CCOCC2)cc1)N1CCC(c2ncnc3cc(OCCCN4CCCCC4)ccc23)CC1 [Example 75],70 nM
10,"CCN1CCN(CCCOc2ccc3c(C4CCN(C(=O)Nc5ccc(N6CCOCC6)cc5)CC4)ncnc3c2)CC1 [Example 115, 4-{7-[3-(4-Ethyl-piperazin-1-yl)-propoxy]-quinazolin-4-yl}-piperidine-1-carboxylic acid (4-morpholin-4-yl-phenyl)-amide]",104 nM
11,"O=C1CCCN1CCCOc1ccc2c(C3CCN(C(=O)Nc4ccc(N5CCOCC5)cc4)CC3)ncnc2c1 [Example 68, 4-{7-[3-(2-Oxo-pyrrolidin-1-yl)-propoxy]-quinazolin-4-yl}-piperidine-1-carboxylic acid (4-morpholin-4-yl-phenyl)-amide]",30 nM
12,"CN1CCC(COc2ccc3c(C4CCN(C(=O)Nc5ccc(N6CCCC6)nc5)CC4)ncnc3c2)CC1 [Example 99, 4-[7-(1-Methyl-piperidin-4-ylmethoxy)-quinazolin-4-yl]-piperidine-1-carboxylic acid (6-pyrrolidin-1-yl-pyridin-3-yl)-amide]",58 nM
13,"CC(C)Oc1ccc(NC(=O)N2CCC(c3ncnc4cc(OCCCN5CCCC5=O)ccc34)CC2)cc1 [Example 67, 4-{7-[3-(2-Oxo-pyrrolidin-1-yl)-propoxy]-quinazolin-4-yl}-piperidine-1-carboxylic acid (4-isopropoxy-phenyl)-amide]",9 nM
14,"CN1CCC(COc2ccc3c(C4CCN(C(=O)Nc5ccc(N6CCCC6)cc5)CC4)ncnc3c2)CC1 [Example 109, 4-[7-(1-Methyl-piperidin-4-ylmethoxy)-quinazolin-4-yl]-piperidine-1-carboxylic acid (4-pyrrolidin-1-yl-phenyl)-amide]",18 nM
15,"O=C(Nc1ccc(N2CCOCC2)cc1)N1CCC(c2ncnc3cc(OCCCN4CCCC4)ccc23)CC1 [Example 124, 4-[7-(3-Pyrrolidin-1-yl-propoxy)-quinazolin-4-yl]-piperidine-1-carboxylic acid (4-morpholin-4-yl-phenyl)-amide]",47 nM
16,"COc1cc2ncnc(C3CCN(C(=O)Nc4ccc(OC5CCCC5)nc4)CC3)c2cc1OC [Example 69, 4-(6,7-Dimethoxy-quinazolin-4-yl)-piperidine-1-carboxylic acid (6-cyclopentyloxy-pyridin-3-yl)-amide]",59 nM
17,"CN1CCN(CCCOc2ccc3c(C4CCN(C(=O)Nc5ccc(N6CCOCC6)nc5)CC4)ncnc3c2)CC1 [Example 80, 4-{7-[3-(4-Methyl-piperazin-1-yl)-propoxy]-quinazolin-4-yl}-piperidine-1-carboxylic acid (6-morpholin-4-yl-pyridin-3-yl)-amide]",52 nM

row,Structure (SMILES),IC50
1,"COc1cc2ncnc(C3CCN(C(=O)Nc4ccc(N5CCCC5=O)cc4)CC3)c2cc1OC [Example 57, 4-(6,7-Dimethoxy-quinazolin-4-yl)-piperidine-1-carboxylic acid [4-(2-oxo-pyrrolidin-1-yl)-phenyl]-amide]",1200 nM
2,"COc1cc2ncnc(C3CCN(C(=O)Nc4ccc(C(C)C)cc4)CC3)c2cc1OC [Example 4, 4-(6,7-Dimethoxy-quinazolin-4-yl)-piperidine-1-carboxylic acid (4-isopropyl-phenyl)-amide]",86 nM
3,"CCC(C)c1ccc(NC(=O)N2CCC(c3ncnc4cc(OC)c(OC)cc34)CC2)cc1 (stereo not drawn) [Example 52, 4-(6,7-Dimethoxy-quinazolin-4-yl)-piperidine-1-carboxylic acid (4-sec-butyl-phenyl)-amide]",7 nM
4,"COc1cc2ncnc(C3CCN(C(=O)Nc4ccc(-c5cncnc5)cc4)CC3)c2cc1OC [Example 58, 4-(6,7-Dimethoxy-quinazolin-4-yl)-piperidine-1-carboxylic acid (4-pyrimidin-5-yl-phenyl)-amide]",2000 nM
5,"CN1CCCN(CCCOc2ccc3c(C4CCN(C(=O)Nc5ccc(N6CCOCC6)cc5)CC4)ncnc3c2)CC1 [Example 125, 4-{7-[3-(4-Methyl-[1,4]diazepan-1-yl)-propoxy]-quinazolin-4-yl}-piperidine-1-carboxylic acid (4-morpholin-4-yl-phenyl)-amide]",45 nM
6,"O=C1CCCN1CCOc1ccc2c(C3CCN(C(=O)Nc4ccc(N5CCOCC5)nc4)CC3)ncnc2c1 [Example 83, 4-{7-[2-(2-Oxo-pyrrolidin-1-yl)-ethoxy]-quinazolin-4-yl}-piperidine-1-carboxylic acid (6-morpholin-4-yl-pyridin-3-yl)-amide]",112 nM
7,"CC(C)Oc1ccc(NC(=O)N2CCC(c3ncnc4cc(OCCCNS(C)(=O)=O)ccc34)CC2)cc1 [Example 65, 4-[7-(3-Methanesulfonylamino-propoxy)-quinazolin-4-yl]-piperidine-1-carboxylic acid (4-isopropoxy-phenyl)-amide]",27 nM
8,"CCOc1ccc(NC(=O)N2CCC(c3ncnc4cc(OC)c(OC)cc34)CC2)cc1 [Example 44, 4-(6,7-Dimethoxy-quinazolin-4-yl)-piperidine-1-carboxylic acid (4-ethoxy-phenyl)-amide]",725 nM
9,"CC(C)Oc1ccc(NC(=O)N2CCC(c3ncnc4ccc(OCCCN5CCCC5=O)cc34)CC2)cc1 [Example 101, 4-{6-[3-(2-Oxo-pyrrolidin-1-yl)-propoxy]-quinazolin-4-yl}-piperidine-1-carboxylic acid (4-isopropoxy-phenyl)-amide]",34 nM
10,"CS(=O)(=O)N1CCN(CCCOc2ccc3c(C4CCN(C(=O)Nc5ccc(N6CCOCC6)cc5)CC4)ncnc3c2)CC1 [Example 118, 4-{7-[3-(4-Methanesulfonyl-piperazin-1-yl)-propoxy]-quinazolin-4-yl}-piperidine-1-carboxylic acid (4-morpholin-4-yl-phenyl)-amide]",90 nM
11,"CC(C)Oc1ccc(NC(=O)N2CCC(c3ncnc4ccc(C#CCN5CCCCC5)cc34)CC2)cc1 [Example 14, 4-[6-(3-Piperidin-1-yl-prop-1-ynyl)-quinazolin-4-yl]-piperidine-1-carboxylic acid (4-isopropoxy-phenyl)-amide]",23 nM
12,"CN1CCC(COc2ccc3c(C4CCN(C(=O)Nc5ccc(OC6CCC6)nc5)CC4)ncnc3c2)CC1 [Example 107, 4-[7-(1-Methyl-piperidin-4-ylmethoxy)-quinazolin-4-yl]-piperidine-1-carboxylic acid (6-cyclobutoxy-pyridin-3-yl)-amide]",23 nM
13,"CS(=O)(=O)NCCCOc1ccc2c(C3CCN(C(=O)Nc4ccc(N5CCCC5)nc4)CC3)ncnc2c1 [Example 86, 4-[7-(3-Methanesulfonylamino-propoxy)-quinazolin-4-yl]-piperidine-1-carboxylic acid (6-pyrrolidin-1-yl-pyridin-3-yl)-amide]",17 nM
14,"CC(C)Oc1ccc(NC(=O)N2CCC(c3ncnc4ccccc34)CC2)cc1 [Example 8, 4-Quinazolin-4-yl-piperidine-1-carboxylic acid (4-isopropoxy-phenyl)-amide]",533 nM
15,"COc1cc2ncnc(C3CCN(C(=O)Nc4ccc(C5=CCNCC5)cc4)CC3)c2cc1OC [Example 62, 4-(6,7-Dimethoxy-quinazolin-4-yl)-piperidine-1-carboxylic acid [4-(1,2,3,6-tetrahydro-pyridin-4-yl)-phenyl]-amide]",7500 nM
16,"O=C1CCCN1CCOc1ccc2c(C3CCN(C(=O)Nc4ccc(N5CCCC5)cc4)CC3)ncnc2c1 [Example 74, 4-{7-[2-(2-Oxo-pyrrolidin-1-yl)-ethoxy]-quinazolin-4-yl}-piperidine-1-carboxylic acid (4-pyrrolidin-1-yl-phenyl)-amide]",40 nM
